# According to US20210113501A1, “METHOD OF ADMINISTERING BETA-HYDROXY-BETA-METHYLBUTYRATE (HMB)” (Metabolic Technologies, Inc., priority 2009, published 2021):
# “And” between values parts separate entries of the source, which are not always exact repeats. Equal entries are not always repeated. Where two headings read alike, the source gives them in different places.
# Assays:
# [1] = Study 1: plasma HMB after a single dose, sampled to 180 min; assay type: in vivo, human; details: for Cpeak (peak plasma HMB concentration): single dose 1 g CaHMB or 0.80 g free acid
# Excerpt: Human subjects. In study 1, four male and four female college-aged subjects were studied. In study 2, an additional four male and four female college-aged subjects were studied. The protocols for both studies were approved by the Iowa State University IRB and each subject gave informed consent to participate in the study. Due to the nature of the treatments, neither the subjects nor the researchers could be blinded.
# Treatments. The same treatments were given to the subjects in both study groups. The three treatments were given in random order to each subject with at least a one week washout period between treatments. The treatments were supplied by Metabolic Technologies, Inc. (MTI, Ames, Iowa) and were prepared with food grade ingredients. One gram of CaHMB or the equivalent HMB in free acid in a gel form was administered to the subjects. The CaHMB capsules were obtained from a commercial supplement manufacturer (Optimum Nutrition, Aurora, Ill.) while the HMB-acid gel was prepared at MTI laboratories. Briefly, the HMB-acid was adjusted to a pH 4.5 with potassium carbonate (K2CO3) and flavors and sweeteners were then added. The 1.0 g CaHMB capsule was taken with 355 mL of water (approx. 12 oz.). The free acid gel dosage was 0.80 g and was equivalent to the free acid contained in the CaHMB in the capsule. The free acid gel treatments were either swallowed (FASW) or held sublingual for 15 seconds and then swallowed (FASL). FASW consisted of expelling the entire dose into the mouth in a 3 ml syringe, swallowing, and then following this with 355 mL of water. FASL subjects were instructed to place the entire dosage under the tongue and hold the dosage for 15 sec before swallowing. They then rinsed and followed the dose with 355 mL of water.
# (§1) Study 1 design. For study 1 the subjects reported to the laboratory in the morning following an overnight fast. Before ingestion of one of the supplemental treatments, a flexible sterile polyethylene catheter was inserted into a forearm vein using sterile procedures and a pre-ingestion blood sample was drawn. Subsequent blood samples were taken at 0, 2, 5, 10, 15, 25, 35, 45, 60, 90, 120 and 180 min after ingestion of the treatment. Plasma was separated and samples were stored frozen at −70° C. for analysis of HMB concentration. In addition, a portion of the pre-ingestion and 180 minute blood samples were used for measurements (LabCorp, Kansas City, Mo.) of glucose, uric acid, blood urea nitrogen (BUN), creatinine, sodium, potassium, chloride, carbon dioxide, phosphorous, protein, albumin, globulin, albumin:globulin ratio, total bilirubin, direct bilirubin, alkaline phosphatase, lactate dehydrogenase, aspartate aminotransferase (AST), alanine aminotransferase (ALT), gamma-glutamyl transpeptidase (GGT), iron binding capacity (TIBC), unsaturated iron binding capacity (UIBC), iron, iron saturation, total cholesterol, triglycerides, high density lipoprotein (HDL), low density lipoprotein (LDL), and cholesterol ratio. A complete blood count (CBC) was also performed before and after the 180 min treatment period. Subjects also completed a brief questionnaire to report any physical symptoms (such as nausea, headache, etc) they may have experienced during the experiment.
# HMB analysis. Plasma and urine HMB were analyzed by gas chromatography/mass spectrometry (GC/MS) as previously described.(27)
# Calculations and statistics. Areas under the curves were calculated for each subject using the trapezoidal method that sums the area above baseline.(51) Half-life of plasma HMB was calculated for study 2. The following equations were used: […]
# The data were analyzed using a crossover design with Proc GLM in SAS. (45) For the timed sampling of plasma HMB a repeated measures polynomial model was used. The model included subject, order, and treatment main effects and time by treatment interaction where appropriate. […]
# [2] = Study 1 hematology (complete blood count); assay type: in vivo, human; details: for Basophils (absolute) % Change / Basophils, % - % Change / Eosinophils (absolute) % Change / Eosinophils, % - % Change / Hematocrit % Change / Hemoglobin % Change / Lymphocytes (absolute) % Change / Lymphocytes, % - % Change / MCH % Change / MCHC % Change / MCV % Change / Monocytes (absolute) % Change / Monocytes, % - % Change / Neutrophils (absolute) % Change / Neutrophils, % - % Change / Platelets % Change / RBC % Change / RDW % Change / WBC % Change: Before to After
# Experimental: as §1
# The data were analyzed using a crossover design with Proc GLM in SAS. (45) For the timed sampling of plasma HMB a repeated measures polynomial model was used. The model included subject, order, and treatment main effects and time by treatment interaction where appropriate. For other parameters Proc GLM was also used with subject, order, and treatment main effects and the p values are reported for the treatment main effect. Statistical significance was determined for p<0.05 and a trend was determined for 0.05<p<0.10.
# [3] = listed as Free Acid Gel Sublingual
smiles,measurement,setting,value
"CC(C)(O)CC(=O)O [HMB-Acid Gel Sublingual, 3-hydroxy-3-methylbutyric acid]",greater area under the curve (AUC) than CaHMB,"[1]; 180 min, listed as FASL",91%
same,AUC plasma HMB,"[1]; 180 min, listed as Free Acid Gel Sublingual","26,778 ± 1,980 nmol/180 min"
same,tpeak (time to reach peak plasma concentration),[1]; listed as FASL,36.3 ± 1.3 min
same,tpeak (time to reach peak plasma concentration),[1]; [3],36.3 ± 1.3 min
same,Cpeak (peak plasma HMB concentration),[1]; listed as FASL,231 ± 21 nmol/mL
same,Cpeak (peak plasma HMB concentration),[1]; [3],231.2 ± 21.0 nmol/mL
same,Basophils (absolute),[2]; After (180 min),0.03 ± 0.02 ×10^3/μL
same,"Basophils, %",[2]; After (180 min),0.3 ± 0.2%
same,Eosinophils (absolute),[2]; After (180 min),0.1 ± 0.02 ×10^3/μL
same,"Eosinophils, %",[2]; After (180 min),1.8 ± 0.3%
same,Hematocrit,[2]; After (180 min),38.5 ± 1.7%
same,Hemoglobin,[2]; After (180 min),13.3 ± 0.6 g/dL
same,Lymphocytes (absolute),[2]; After (180 min),2.2 ± 0.2 ×10^3/μL
same,"Lymphocytes, %",[2]; After (180 min),35.5 ± 2.1%
same,MCH,[2]; After (180 min),31.0 ± 0.5 pg
same,MCHC,[2]; After (180 min),34.5 ± 0.2 g/dL
same,MCV,[2]; After (180 min),89.9 ± 1.7 fL
same,Monocytes (absolute),[2]; After (180 min),0.5 ± 0.05 ×10^3/μL
same,"Monocytes, %",[2]; After (180 min),7.1 ± 0.7%
same,Neutrophils (absolute),[2]; After (180 min),3.5 ± 0.3 ×10^3/μL
same,"Neutrophils, %",[2]; After (180 min),55.4 ± 2.9%
same,Platelets,[2]; After (180 min),213.9 ± 19.1 ×10^3/μL
same,RBC,[2]; After (180 min),4.3 ± 0.2 ×10^6/µL
same,RDW,[2]; After (180 min),13.3 ± 0.2%
same,WBC,[2]; After (180 min),6.3 ± 0.4 ×10^3/μL
same,Basophils (absolute),[2]; Before,0.03 ± 0.02 ×10^3/μL
same,"Basophils, %",[2]; Before,0.3 ± 0.2%
same,Eosinophils (absolute),[2]; Before,0.2 ± 0.03 ×10^3/μL
same,"Eosinophils, %",[2]; Before,2.4 ± 0.4%
same,Hematocrit,[2]; Before,37.8 ± 1.6%
same,Hemoglobin,[2]; Before,13.1 ± 0.6 g/dL
same,Lymphocytes (absolute),[2]; Before,2.8 ± 0.2 ×10^3/μL
same,"Lymphocytes, %",[2]; Before,43.0 ± 1.4%
same,MCH,[2]; Before,31.0 ± 0.5 pg
same,MCHC,[2]; Before,34.7 ± 0.2 g/dL
same,MCV,[2]; Before,89.6 ± 1.6 fL
same,Monocytes (absolute),[2]; Before,0.5 ± 0.1 ×10^3/μL
same,"Monocytes, %",[2]; Before,7.0 ± 1.0%
same,Neutrophils (absolute),[2]; Before,3.1 ± 0.3 ×10^3/μL
same,"Neutrophils, %",[2]; Before,47.4 ± 2.2%
same,Platelets,[2]; Before,221.3 ± 20.8 ×10^3/μL
same,RBC,[2]; Before,4.2 ± 0.2 ×10^6/µL
same,RDW,[2]; Before,13.2 ± 0.2%
same,WBC,[2]; Before,6.6 ± 0.4 ×10^3/μL
same,Basophils (absolute) % Change,[2],0.0%
same,"Basophils, % - % Change",[2],0.0%
same,Eosinophils (absolute) % Change,[2],−28.6%
same,"Eosinophils, % - % Change",[2],−26.3%
same,Hematocrit % Change,[2],2.0%
same,Hemoglobin % Change,[2],1.4%
same,Lymphocytes (absolute) % Change,[2],−22.1%
same,"Lymphocytes, % - % Change",[2],−17.4%
same,MCH % Change,[2],0.0%
same,MCHC % Change,[2],−0.5%
same,MCV % Change,[2],0.3%
same,Monocytes (absolute) % Change,[2],0.0%
same,"Monocytes, % - % Change",[2],1.8%
same,Neutrophils (absolute) % Change,[2],11.6%
same,"Neutrophils, % - % Change",[2],16.9%
same,Platelets % Change,[2],−3.3%
same,RBC % Change,[2],1.7%
same,RDW % Change,[2],0.9%
same,WBC % Change,[2],−4.2%
"CC(C)(O)CC(=O)[O-].CC(C)(O)CC(=O)[O-].[Ca+2] [CaHMB, calcium β-hydroxy-β-methylbutryate, reference compound]",time of peak plasma HMB,[1],122 ± 15.6 min
same,tpeak (time to reach peak plasma concentration),[1],121.9 ± 15.6 min
same,AUC plasma HMB,[1]; 180 min,"13,997 ± 1,534 nmol/180 min"
same,Cpeak (peak plasma HMB concentration),[1],131 ± 10 nmol/mL and 131.2 ± 10.1 nmol/mL
same,Basophils (absolute),[2]; After (180 min),0.04 ± 0.0 ×10^3/μL
same,"Basophils, %",[2]; After (180 min),0.4 ± 0.2%
same,Eosinophils (absolute),[2]; After (180 min),0.1 ± 0.04 ×10^3/μL
same,"Eosinophils, %",[2]; After (180 min),2.1 ± 0.6%
same,Hematocrit,[2]; After (180 min),38.7 ± 1.3%
same,Hemoglobin,[2]; After (180 min),13.4 ± 0.5 g/dL
same,Lymphocytes (absolute),[2]; After (180 min),2.1 ± 0.2 ×10^3/μL
same,"Lymphocytes, %",[2]; After (180 min),34.0 ± 3.4%
same,MCH,[2]; After (180 min),31.3 ± 0.6 pg
same,MCHC,[2]; After (180 min),34.7 ± 0.2 g/dL
same,MCV,[2]; After (180 min),90.4 ± 1.5 fL
same,Monocytes (absolute),[2]; After (180 min),0.5 ± 0.1 ×10^3/μL
same,"Monocytes, %",[2]; After (180 min),7.4 ± 0.7%
same,Neutrophils (absolute),[2]; After (180 min),3.8 ± 0.7 ×10^3/μL
same,"Neutrophils, %",[2]; After (180 min),56.1 ± 3.8%
same,Platelets,[2]; After (180 min),202.9 ± 16^ ×10^3/μL
same,RBC,[2]; After (180 min),4.3 ± 0.2 ×10^6/µL
same,RDW,[2]; After (180 min),13.1 ± 0.2%
same,WBC,[2]; After (180 min),6.4 ± 0.7 ×10^3/μL
same,Basophils (absolute),[2]; Before,0.05 ± 0.0 ×10^3/μL
same,"Basophils, %",[2]; Before,0.5 ± 0.2%
same,Eosinophils (absolute),[2]; Before,0.2 ± 0.04 ×10^3/μL
same,"Eosinophils, %",[2]; Before,2.5 ± 0.4%
same,Hematocrit,[2]; Before,38.3 ± 1.1%
same,Hemoglobin,[2]; Before,13.3 ± 0.4 g/dL
same,Lymphocytes (absolute),[2]; Before,2.5 ± 0.1 ×10^3/μL
same,"Lymphocytes, %",[2]; Before,39.6 ± 2.8%
same,MCH,[2]; Before,31.2 ± 0.6 pg
same,MCHC,[2]; Before,34.7 ± 0.1 g/dL
same,MCV,[2]; Before,90.0 ± 1.5 fL
same,Monocytes (absolute),[2]; Before,0.5 ± 0.1 ×10^3/μL
same,"Monocytes, %",[2]; Before,7.1 ± 0.9%
same,Neutrophils (absolute),[2]; Before,3.3 ± 0.4 ×10^3/μL
same,"Neutrophils, %",[2]; Before,50.3 ± 3.3%
same,Platelets,[2]; Before,209.0 ± 14^ ×10^3/μL
same,RBC,[2]; Before,4.3 ± 0.2 ×10^6/µL
same,RDW,[2]; Before,13.1 ± 0.2%
same,WBC,[2]; Before,6.4 ± 0.4 ×10^3/μL
same,Basophils (absolute) % Change,[2],−25.0%
same,"Basophils, % - % Change",[2],−25.0%
same,Eosinophils (absolute) % Change,[2],−21.4%
same,"Eosinophils, % - % Change",[2],−15.0%
same,Hematocrit % Change,[2],1.2%
same,Hemoglobin % Change,[2],1.2%
same,Lymphocytes (absolute) % Change,[2],−15.6%
same,"Lymphocytes, % - % Change",[2],−14.2%
same,MCH % Change,[2],0.3%
same,MCHC % Change,[2],0.1%
same,MCV % Change,[2],0.4%
same,Monocytes (absolute) % Change,[2],8.3%
same,"Monocytes, % - % Change",[2],3.5%
same,Neutrophils (absolute) % Change,[2],14.5%
same,"Neutrophils, % - % Change",[2],11.7%
same,Platelets % Change,[2],−2.9%
same,RBC % Change,[2],1.0%
same,RDW % Change,[2],0.1%
same,WBC % Change,[2],0.3%
